The text below walks through data of US6468537B1, “Localization of major peptide autoepitopes for nucleosome specific T cells of systemic lupus erythematosus” (The Board of Trustees of Northwestern University, priority 1999, dated 2002).

Assay [1] has as its system pathogenic Th clones from SNF1 mice. In words: Stimulation of nucleosome-specific pathogenic Th clones from SNF1 mice by eluted/synthetic peptides. Type of assay: cell-based, mouse. The conditions noted are these: A20 or splenic B+Mφ as APC. The protocol:
Fresh splenic, CD4^+ T cells (5×10^5/well) were co-cultured in triplicate wells at an initial concentration of 5×10^5 cells per well, with 10^6 cells per well of either irradiated B+Mφ or mitomycin-C treated A20 APC. Varying concentrations of either control or test peptides were added and the cultures were adjusted to 200 microliters final volume of HL-1 serum-free medium (Hycor Biomedical Inc., Irvine, Calif.) cultures were incubated for 96 hours in flat bottom 96-well plates, and at 18 hours prior to harvesting the cells, 1 microcurie of 3H-Thymidine was added to each well. The incorporated radioactivity was measured by scintillation counting. The Stimulation Index (SI) was calculated by dividing the mean counts per minute (cpm) incorporated in co-cultures of T cells and APC with test peptide by the mean cpm incorporated in control peptide co-cultures. In the case of cytokine assays, experiments were carried out as described for the proliferation assays except that the culture supernatants were removed from duplicate co-culture wells after 24-46 hours of incubation and cytokine assays were performed.
An aliquot of 50 microliters from each HPLC fraction was assayed for stimulating ability as described above. Four characterized Th clones were used as indicators of cytokine secretion (IL-2 and/or IL-4) in response to the peptide fractions, using A20 or splenic B+Mψ as APCs (Adams, et al., 1991, Proc. Natl. Acad. Sci. USA 88:11271-11275; Shi, et al., 1998, J. Exp. Med. 187:367-378). […] Only two out of one hundred fractions tested were able to stimulate Th cell clones. […] The latter was further separated as described, and tested for active fractions of HPLC purified peptides.. Three naturally processed and presented, stimulatory epitopes were identified using these procedures. The sequences of the peptides are as follows: SQKEEEEGAQREKE (EP-1, SEQ ID NO: 23); DWMEEEHGAQREKE (EP-2, SEQ ID NO: 24); and […] (EP-3, or H522-42, SEQ ID NO: 25). The first two peptides were homologous to sequences in a transcription factor, BRN-3, which is identical in chicken, mice and humans (GenBank). […] EP-1 is highly homologous to EP-2, but it also matched a sequence in cytomegalovirus envelope protein at aa position 57-70. Most likely these peptides are derived from some transcription factor in the chromatin that was incubated with the APC. The third sequence (EP-3) was derived from histone H5 (aa position 22-42) in chicken nucleosome, which is homologous to histone H1 sequence of mice and humans at amino acid position 22-42 ([…], SEQ ID NO:26). […] Therefore, the mouse H122-42 is the autoantigenic peptide in mice and is also referred to herein as EP-3. Nested sequences and unrelated sequences that were obtained in the active fractions from the eluates were also synthesized and re-tested.

The test system of assay [2] is Th clones 1D12, 5E9, 3F6, 1G1. In words: Helper assay: Th clones co-cultured with splenic B cells from SNF1 mice in presence of peptide. The conditions noted are these: responder Th clones 5E9 and 3F6. Type of assay: cell-based, mouse. Here is the method: IgG autoantibodies to ssDNA, dsDNA, histones, and nucleosomes were quantitated using an ELISA as described previously (Mohan, et al., 1995, J. Immunol., 154:1470-1480; Mohan, et al., 1993, J. Exp. Med. 177:1367-1381; Burlingame, et al., 1993, J. Clin. Invest. 91:1687-1696; Losman, et al., 1992, J. Immunol., 148:1561-1569). Sera were diluted 1:100 and heat-inactivated before use. Serum from normal BALB/c mice were used as negative control. Anti-DNA mAbs 564 and 205 were used to generate standard curves (Adams, et al., 1991, Proc. Natl. Acad. Sci. USA 88:11281-11275; Mohan, et al., 1995, J. Immunol., 154:1470-1480; Mohan, et al., 1993, J. Exp. Med. 177:1367-1381; Sainis and Datta, 1988, J. Immunol. 140:2215-2224). For IgG autoantibodies to ssDNA, histones and nucleosomes, 1 unit per milliliter was considered to be equivalent to the activity of one microgram per milliliter of mAb 564, which recognizes all three autoantigens (Mohan, et al., 1995, J. Immunol., 154:1470-1480; Mohan, et al., 1993, J. Exp. Med. 177:1367-1381), and for IgG anti-dsDNA, 1 unit per milliliter was equivalent to the binding of 0.6 micrograms per milliliter of the mAb 205.
After seven days of co-culture, the supernatants were assayed for IgG antibodies to the autoantigens (ds-DNA, ss-DNA, nucleosome, and histone) by ELISA. […]

For the next assay, the system named is SNF1 mice. In words: Acceleration of SLE-associated nephritis by immunization with eluted peptides in adjuvant. Type of assay: in vivo, mouse. An excerpt: The animals received three more injections at two weeks interval with 50 micrograms of either an eluted peptide or the control peptide absorbed on alum (Pierce Chemical Co., Rockford, Ill.).

In the case of “STDHPKYSDMIVAAIQAEKNR (Histone fragment) [H122-42]”, the “stimulation of pathogenic Th clones” value in assay [1] is reported as “equivalent to the chicken H52242 peptide”; in assay [1] (listed as EP-3), “stimulatory”. For the same sequence, in assay [2], the “augmentation of autoantibody-inducing help” value is recorded as “almost as much as the whole nucleosome”. The “development of severe nephritis” value in the assay on SNF1 mice (by 28 weeks of age) is recorded as “all the EP-3 immunized mice developed severe nephritis”. Also, in the assay on SNF1 mice (immunization from 12 weeks), the “onset/rate of disease relative to control group (CFA alone or OVA peptide in CFA)” value was “developed severe nephritis earlier”. Also, the “time to severe nephritis in some immunized animals” value in the assay with SNF1 mice (just after the first booster immunization) is on record as 2-3 weeks. For the same sequence, in the assay on SNF1 mice (within four weeks of the first injection, peptide in CFA), the “mice succumbed to severe lupus nephritis” value was “Eighty percent”.
